These results are taken from paper PMC12830207, “Targeting the protein–protein interaction between the CDC37 cochaperone and client kinases by an allosteric RAF dimer breaker” (The Journal of Biological Chemistry, 2025).

One experiment concerns CRAF–CDC37 interaction. Put plainly: NanoBiT luminescence CDC37–RAF interaction reporter assay, CRAF^SmBiT–CDC37^LgBiT. It is filed as cell-based, human (HEK293). Particulars: HEK293, 25 μM braftide, 4 h, 1 μM bortezomib pretreatment 5 h, 10 μM furimazine, 470 to 480 nm. The text has this:
NanoBiT cytomegalovirus MCS BiBiT vector, which contains a BRAF N terminal fused with LgBiT and CRAF N terminal fused with SmBiT, was purchased from Promega. CDC37 LgBiT and CRAF SmBiT was generated using the standard Gibson Assembly (NEB HiFi Assembly) using NanoBiT BiBiT as the vector and following primers: 5′ […] 3′, 5′ […] 3′, and CDC37 LgBiT and BRAF SmBiT was generated using the standard Gibson Assembly using NanoBiT BiBiT as the vector and following primers: 5′ […] 3′, 5′ […] 3′. Primers were designed to introduce H20A, N22A, I23A triple mutation within the CDC37 FLAG tag and for NanoBiT construct CDC37(HNI/A) LgBit and BRAF SmBiT. Primers were designed to introduce the desired substitutions. The forward primer sequence was 5′ gccgcc[…] […]
Twenty-four hours post-transfection, cells were trypsinized, pelleted, resuspended in OptiMEM + 4% fetal bovine serum, and reseeded onto a 96-well plate at 5(10)^4 cells per well and then incubated at 37 °C overnight. […] After treatment, 10 μM furimazine substrate was added to each well, and luminescence readings were taken at 470 to 480 nm using a CLARIOstar plate reader. Statistical significance was determined through a paired t test where indicated, followed by Tukey's honest significant difference post hoc test with corresponding p values (∗p < 0.05, ∗∗p < 0.01, and ∗∗∗p < 0.001). […]

A further experiment has as its system CDC37–HSP90 interaction. Put plainly: Co-IP of CDC37-FLAG with HSP90 in HEK293. The conditions noted are these: HEK293, 25 μM braftide, bortezomib pretreatment. It is filed as cell-based, human (HEK293). As to the method: (§1) HEK293 cells were seeded at 1(10)^6 cells per well for a 6-well plate or 5(10)^6 for 10 cm dishes and incubated until 40% to 60% confluency. Transfection was carried out using a 1:3 DNA:PEI-MAX ratio in OPTI-MEM and allowed 48 h for protein expression. For peptide assays, 48 h post-transfection, cells were treated with TAT–braftide carried in OPTI-MEM at indicated concentrations. Cells were harvested in cold PBS. Harvested cells were lysed in 4% SDS or modified radioimmunoprecipitation assay (RIPA) for co-IP experiments. Quantification of total protein by the bicinchoninic acid assay was carried out according to the manufacturer's protocols (Pierce; catalog no.: 23225).
(§2) Transfected HEK293 cells were treated with the indicated treatments and harvested in cold PBS. […] Samples were analyzed via immunoblot.
(§3) Western blot band densities were quantified with ImageJ software (National Institutes of Health) and normalized to the indicated loading control. Statistical significance was determined through one-/two-way ANOVA, where indicated, followed by Tukey's honest significant difference post hoc test with corresponding p values (∗p < 0.05, ∗∗p < 0.002, ∗∗∗p < 0.0002, and ∗∗∗∗p < 0.0001). […]

Another experiment has as its system HCT116 cells. The conditions noted are these: HCT116, previously reported, readout not given; read-out: EC50, braftide, HCT116; cited from earlier work. The text has this: Our findings highlight the therapeutic potential of targeting CDC37–client kinase interactions, as oncogenic kinases are intrinsically unstable and thus are more dependent on their association with the HSP90–CDC37 chaperone complex for stability and activation compared with their wildtype counterparts ([4]). […] HCT116 cells harbor an upstream KRAS […]–activating mutation, with a previously reported braftide ...

The next experiment has as its system RAF kinase. The conditions noted are these: in vitro and in cells; cited from earlier work. The text has this:
The sequence of braftide mirrors the residues spanning the tail end of the αC helix and a region known as the αC helix–β4 loop, which includes three key residues: BRAF R509, L515, and M517, critical for RAF dimerization.

A further experiment relates to CRAF. As to the kind of experiment: CRAF ubiquitination (IP of MBP-CRAF-FLAG, ubiquitin immunoblot). It is filed as cell-based, human (HEK293). Particulars: HEK293, MBP-CRAF-FLAG, 50 μM braftide, bortezomib pretreatment. As for the experimental part:
as §1, §2, §3

Another experiment deals with CDC37–BRAF interaction. Put plainly: Co-IP of CDC37-FLAG with BRAF-V5 in HEK293. It is filed as cell-based, human (HEK293). Particulars: HEK293, 25 μM braftide, bortezomib pretreatment. As to the method:
as §1, §2, §3

In the next experiment the test system is HEK293 cells. As to the kind of experiment: Annexin V apoptosis assay, HEK293. The conditions noted are these: 0, 5, 10, 25, 50, 75, and 100 μM braftide, 4 h, n = 3. It is filed as cell-based, human. As for the experimental part:
HEK293 cells and HCT116 cells were treated with either control or braftide at the indicated concentrations for 4 h. After treatment, both the floating and adherent cell populations were collected and adjusted with PBS (final concentration: 1 × 10^5 cells/ml). The cells were then mixed with the Annexin V (Cytex; FCCH100108) reagent in a 5:1 ratio (100 μl of cells mixed with 20 μl of Annexin V reagent) and allowed to stain in the dark, at room temperature for 15 min. The cells were then analyzed on a Guava Muse Cell Analyzer (Millipore).

The test system of another experiment is WM3629 cells. Particulars: WM3629, reported; read-out: EC50, braftide, WM3629; cited from earlier work. The text has this:
Based on the observed synergistic effects of inhibiting the ternary complex, the antiproliferative effects were explored using combinatorial treatment in two RAF-dimer–dependent cell lines: HCT116 and WM3629. HCT116 cells mainly rely on the wildtype BRAF–CRAF heterodimer and BRAF–BRAF homodimer to relay the MAPK signal, whereas WM3629 cells contain the BRAF D594G mutant, which is a kinase-dead mutant and depends on dimerization with CRAF for activation ([34]).

Another experiment has as its system BRAF–CDC37 interaction. Put plainly: NanoBiT luminescence CDC37–RAF interaction reporter assay, BRAF^SmBiT–CDC37^LgBiT. It is filed as cell-based, human (HEK293). The text has this: NanoBiT cytomegalovirus MCS BiBiT vector, which contains a BRAF N terminal fused with LgBiT and CRAF N terminal fused with SmBiT, was purchased from Promega. CDC37 LgBiT and CRAF SmBiT was generated using the standard Gibson Assembly (NEB HiFi Assembly) using NanoBiT BiBiT as the vector and following primers: 5′ […] 3′, 5′ […] 3′, 5′ […] 3′, 5′ […] 3′, and CDC37 LgBiT and BRAF SmBiT was generated using the standard Gibson Assembly using NanoBiT BiBiT as the vector and following primers: 5′ […] 3′, 5′ […] 3′, 5′ […] 3′, 5′ […] 3′. Primers were designed to introduce H20A, N22A, I23A triple mutation within the CDC37 FLAG tag and for NanoBiT construct CDC37(HNI/A) LgBit and BRAF SmBiT. Primers were designed to introduce the desired substitutions. The forward primer sequence was 5′ gccgcc[…] 3′, and the reverse primer sequence was 5′ gggggc[…] 3′. Site-directed mutagenesis was carried out using the Q5 Site-Directed Mutagenesis Kit (NEB; E0554) following the manufacturer's protocol.
Twenty-four hours post-transfection, cells were trypsinized, pelleted, resuspended in OptiMEM + 4% fetal bovine serum, and reseeded onto a 96-well plate at 5(10)^4 cells per well and then incubated at 37 °C overnight. Cells were pretreated with 1 μM bortezomib for 5 h and then braftide for 4 h at 0 and 25 μM. After treatment, 10 μM furimazine substrate was added to each well, and luminescence readings were taken at 470 to 480 nm using a CLARIOstar plate reader. Statistical significance was determined through a paired t test where indicated, followed by Tukey's honest significant difference post hoc test with corresponding p values (∗p < 0.05, ∗∗p < 0.01, and ∗∗∗p < 0.001). All graph bars represent the mean ± SD with individual data points per biological replicate with corresponding p values.
A general note: In a reporter assay the amount or activity of a reporter protein is the signal.

Consider “GRKKRRQRRRPQ-miniPEG-TRHVNILLFM [Braftide]”, for which, in the experiment on CRAF–CDC37 interaction, the “NanoBiT luminescence, CRAF^SmBiT–CDC37^LgBiT” value is on record as “reduction in luminescence, reflecting a decrease in the CDC37–RAF interaction”. The “CDC37–HSP90 interaction” value in the experiment with CDC37–HSP90 interaction is on record as “maintaining the CDC37–HSP90 interaction”. Also, the EC50 in the experiment with HCT116 cells is 7.1 ± 0.5 µM; in the experiment with WM3629 cells, 11.1 ± 1.12 µM. The RAF kinase activity entry in the experiment with RAF kinase is “inhibits RAF kinase activity”. For the same substance, the “paradoxical activation induced by ATP-competitive inhibitors” value with RAF kinase was “mitigates paradoxical activation induced by ATP-competitive inhibitors, both in vitro and in cells”. The CRAF ubiquitination result in the experiment on CRAF is on record as “increased CRAF ubiquitination”. In addition, the “CDC37–BRAF complex” value with CDC37–BRAF interaction was “reduced the CDC37–client BRAF–CRAF complex”. Further, the “apoptosis (Annexin V), HEK293” value is reported as “triggers apoptosis” in the experiment on HEK293 cells and “triggered dose-dependent apoptosis” with HEK293 cells (listed as braftide). In addition, in the experiment with BRAF–CDC37 interaction (HEK293, 25 μM braftide, 4 h, 1 μM bortezomib pretreatment 5 h, 10 μM furimazine, 470 to 480 nm), the “NanoBiT luminescence, BRAF^SmBiT–CDC37^LgBiT” value was “reduction in luminescence, reflecting a decrease in the CDC37–RAF interaction”. The “protein levels of NanoBiT constructs (immunoblot control)” value in the experiment on BRAF–CDC37 interaction (HEK293, braftide, bortezomib pretreatment, BRAF and CRAF constructs (Fig. 1, K and M)) is on record as “protein levels remained the same with bortezomib pretreatment”.

As usually defined, the EC50 is the midpoint of the concentration-response curve.
